Assay results reported in patent US7265131B2, “Isoquinolinone derivatives and their use as therapeutic agents” (Exelixis, Inc., priority 2002, dated 2007).

Biological target: T1, LXRβ (Homo sapiens, UniProt P55055)
T1 construct: were made by cloning the appropriate full-length cDNAs into the pBacPakhis1 vector; poly-His (pBacPakhis1) (N); made in house; host or cells: Sf9 insect cells (baculovirus), crude lysate
Assay: Scintillation proximity assay (SPA), competition with 3H-24,25-epoxycholesterol
Format: binding
Settings: average Ki with respect to LXR β, read-out: Ki(b)
Procedure: The SPA assay measures the radioactive signal generated by the binding of ^3H-24,25-epoxycholesterol to LXRα or LXRβ. The basis of the assay is the use of SPA beads containing a scintillant, such that when binding to the receptor brings the labeled ligand into proximity with the bead, the energy from the label stimulates the scintillant to emit light. The light is measured using a standard microplate scintillation reader. The ability of a ligand to bind to a receptor can be measured by assessing the degree to which the compound can compete off a radiolabelled ligand with known affinity for the receptor.
1. Label: ^3H-24,25-epoxy-cholesterol (Amersham)
3. LXRβ lysate: Baculovirus expressed LXRβ/RXR heterodimer with RXR having a 6-HIS tag produced as a crude lysate
4. SPA beads: Ysi copper His-tag SPA beads (Amersham)
Baculovirus expression plasmids for human RXR α (accession No NM_002957), LXR a (accession No U22662), LXR β (accession No U07132) were made by cloning the appropriate full-length cDNAs into the pBacPakhis1 vector (Clontech, CA) following standard procedures. Insertion of the cDNAs into the pBAcPakhis1 vector polylinker created an in frame fusion to the cDNA to an N-terminal poly-His tag present in pBacPakhis1. Correct cloning was confirmed by restriction mapping, and/or sequencing.
Cell lysates were prepared by infecting healthy, Sf9 insect cells at a density of approximately 1.25×10^6/ml at 27° C., in a total volume of 500 mL per 1 L sized spinner flasks, cultured under standard conditions. To prepare LXRα lysate, insect cells were co-transfected with the LXR α expression cassette at an M.O.I of 0.5 to 0.8 and with the RXR expression cassette at a M.O.I. of approximately 1.6. To prepare LXRβ lysate, insect cells were co-transfected with the LXR β expression cassette at an M.O.I of approximately 1.6 and with the RXR expression cassette at a M.O.I. of approximately 1.6. In both cases cells were incubated for 48 hours at 27° C. with constant shaking prior to harvesting.
After incubation, cells were harvested by centrifugation and pelleted. Cell pellets were resuspended in two volumes of ice-cold freshly prepared extraction buffer (20 mM Tris pH 8.0, 10 mM Imidazole, 400 mM NaCl, containing one EDTA free protease inhibitor tablet (Roche Catalog No: 1836170) per 10 ml of extraction buffer).
Cells were homogenized slowly on ice using a Douncer to achieve 80-90% cell lysis. The homogenate was centrifuged in a pre-chilled rotor (Ti50 or Ti70, or equivalent) at 45,000 rpm for 30 minutes at 4° C. Aliquots of the supernatant were frozen on dry ice and stored frozen at −80° C. until quantification and quality control. Aliquots of the lysates were tested in the SPA assay to ensure lot to lot consistency, and via SDS-PAGE analysis after purification using Ni-NTA Resin (Qiagen) and adjusted for protein concentration and expression level prior to use in screening assays.
[^3H] 24,25 Epoxycholesterol (EC) solution: For a single 384-well plate (or 400 wells), 21 μL of [^3H] EC (specific activity 76.5 Ci/mmol, concentration 3.2 mCi/mL) was added to 4.4 mL of 2×SPA buffer to provide for a final concentration of 200 nM. For each additional 384-well plate, an additional 19.1 μL of [^3H] EC was added to 4.0 mL of additional 2×SPA buffer. The final concentration of [^3H] EC in the well was 50 nM.
LXRβ lysate (prepared as above) was diluted with protein lysate dilution buffer. 1400 μL of diluted LXRβ lysate was prepared per 384-well plate, ([…]) and 1120 μL of diluted LXRβ lysate was prepared for each additional 384-well plate.
SPA bead solution: For a 384-well plate (or 400 wells), 3.75 mL of 2×SPA buffer w/o EDTA, 2.25 mL of H2O, and 1.5 mL of Ysi His-tag SPA beads (vortex well before taking) were mixed together. For each additional 384-well plate, an additional 3.5 mL of 2×SPA buffer w/o EDTA, 2.1 mL of H2O, and 1.4 mL of Ysi His-tag SPA beads were mixed together. […]

T1 sequence (P19793 whole entry): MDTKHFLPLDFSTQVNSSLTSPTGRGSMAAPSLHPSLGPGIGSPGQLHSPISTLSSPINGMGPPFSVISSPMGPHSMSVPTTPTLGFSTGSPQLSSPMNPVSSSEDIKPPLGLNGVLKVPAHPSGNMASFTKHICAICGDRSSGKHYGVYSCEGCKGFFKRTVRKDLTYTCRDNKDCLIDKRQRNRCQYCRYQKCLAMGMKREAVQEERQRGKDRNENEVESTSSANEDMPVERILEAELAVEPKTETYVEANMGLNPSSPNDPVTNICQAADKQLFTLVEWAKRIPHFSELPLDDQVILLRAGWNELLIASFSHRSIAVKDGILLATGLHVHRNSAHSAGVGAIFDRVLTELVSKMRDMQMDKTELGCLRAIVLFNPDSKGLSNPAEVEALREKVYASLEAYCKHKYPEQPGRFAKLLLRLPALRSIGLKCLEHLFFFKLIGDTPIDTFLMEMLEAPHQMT
T1 sequence (P55055 whole entry): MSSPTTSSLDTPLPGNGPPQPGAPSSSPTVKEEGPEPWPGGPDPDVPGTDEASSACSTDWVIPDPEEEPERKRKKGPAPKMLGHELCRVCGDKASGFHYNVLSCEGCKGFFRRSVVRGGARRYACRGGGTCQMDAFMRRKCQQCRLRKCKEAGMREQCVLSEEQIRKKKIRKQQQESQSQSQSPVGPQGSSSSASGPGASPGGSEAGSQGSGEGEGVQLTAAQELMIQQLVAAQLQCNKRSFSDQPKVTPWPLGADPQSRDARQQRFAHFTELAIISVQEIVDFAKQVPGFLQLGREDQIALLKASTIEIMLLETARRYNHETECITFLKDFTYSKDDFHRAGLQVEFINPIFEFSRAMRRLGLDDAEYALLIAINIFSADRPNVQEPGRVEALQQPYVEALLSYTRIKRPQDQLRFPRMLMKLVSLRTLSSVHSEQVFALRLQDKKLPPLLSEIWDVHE

Structure (SMILES)	Ki [nM]
Cc1ccc(Cn2c(-c3ccc(Oc4ccccc4)cc3)cc3ccccc3c2=O)c(C)c1 [2-(2,4-dimethylbenzyl)-3-(4-phenoxyphenyl)-2H-isoquinolin-1-one]	10 to 150
Cc1ccc(Cn2c(-c3ccsc3)cc3ccccc3c2=O)c(C)c1 [2-(2,4-dimethylbenzyl)-3-thiophen-3-yl-2H-isoquinolin-1-one]	150 to 500
Cc1cccc(-c2cc3ccccc3c(=O)n2Cc2ccccc2)c1 [2-benzyl-3-m-tolyl-2H-isoquinolin-1-one]	> 500
O=c1c2c(Cl)cccc2cc(-c2cc(-c3cc(C(F)(F)F)cc(C(F)(F)F)c3)co2)n1Cc1ccc(F)cc1F [3-[4-(3,5-bis-trifluoromethylphenyl)furan-2-yl]-8-chloro-2-(2,4-difluorobenzyl)-2H-isoquinolin-1-one]	10 to 150
Nc1ccc(-c2coc(-c3cc4cccc(Cl)c4c(=O)n3Cc3ccc(F)cc3F)c2)cc1C(F)(F)F [3-[4-(4-amino-3-trifluoromethylphenyl)furan-2-yl]-8-chloro-2-(2,4-difluorobenzyl)-2H-isoquinolin-1-one]	10 to 150
CS(=O)(=O)c1ccc(-c2ccc(-c3cc4cccc(Cl)c4c(=O)n3Cc3ccc(F)cc3F)s2)cc1 [8-chloro-2-(2,4-difluorobenzyl)-3-[5-(4-methanesulfonylphenyl)thiophen-2-yl]-2H-isoquinolin-1-one]	10 to 150
CCOc1ccc(-c2csc(-c3cc4cccc(Cl)c4c(=O)n3Cc3ccc(F)cc3F)c2)cc1Cl [8-chloro-3-[4-(3-chloro-4-ethoxyphenyl)thiophen-2-yl]-2-(2,4-difluorobenzyl)-2H-isoquinolin-1-one]	150 to 500

The remaining lines, values ahead:

Ki [nM]	Structure (SMILES)
> 500	Cc1ccc(Cn2c(C#CC(C)(C)O)cc3ccccc3c2=O)c(C)c1 [2-(2,4-dimethylbenzyl)-3-(3-hydroxy-3-methylbut-1-ynyl)-2H-isoquinolin-1-one]
10 to 150	Cc1cccc(-c2cc3ccccc3c(=O)n2Cc2ccc(C)cc2C)c1 [2-(2,4-dimethylbenzyl)-3-m-tolyl-2H-isoquinolin-1-one]
10 to 150	O=c1c2c(Cl)cccc2cc(-c2ccc(Oc3ccccc3)cc2)n1Cc1ccc(F)cc1F [8-chloro-2-(2,4-difluorobenzyl)-3-(4-phenoxyphenyl)-2H-isoquinolin-1-one]
10 to 150	O=c1c2c(Cl)cccc2cc(-c2ccc(Oc3cnccn3)cc2)n1Cc1ccc(F)cc1F [8-chloro-2-(2,4-difluorobenzyl)-3-[4-(pyrazin-2-yloxy)phenyl]-2H-isoquinolin-1-one]
10 to 150	O=c1c2c(Cl)cccc2cc(-c2ccc(Oc3ccccc3)cc2)n1CC1CCCCC1 [8-chloro-2-cyclohexylmethyl-3-(4-phenoxyphenyl)-2H-isoquinolin-1-one]
10 to 150	O=c1c2c(Cl)cccc2cc(-c2ccc(Oc3ccccc3)cc2)n1Cc1cccs1 [8-chloro-3-(4-phenoxyphenyl)-2-thiophen-2-ylmethyl-2H-isoquinolin-1-one]
10 to 150	Cc1ccc(Cn2c(-c3ccc(Oc4ccccc4)cc3)cc3cccc(C)c3c2=O)cc1 [8-methyl-2-(4-methylbenzyl)-3-(4-phenoxyphenyl)-2H-isoquinolin-1-one]
